Measurements published in patent US6063766A, “Transport protein which effects the transport of cationic xenobiotics and/or pharmaceuticals, DNA sequences encoding it and their use” (priority 1994, dated 2000).
Where two headings read alike, the source gives them in different places.

Columns and labels:
OCT1 transport protein [1] = target: T1, OCT1 transport protein (Rattus norvegicus, UniProt Q63089); conditions: xenopus oocytes expressing oct1
T1 sequence (Q63089 1-556): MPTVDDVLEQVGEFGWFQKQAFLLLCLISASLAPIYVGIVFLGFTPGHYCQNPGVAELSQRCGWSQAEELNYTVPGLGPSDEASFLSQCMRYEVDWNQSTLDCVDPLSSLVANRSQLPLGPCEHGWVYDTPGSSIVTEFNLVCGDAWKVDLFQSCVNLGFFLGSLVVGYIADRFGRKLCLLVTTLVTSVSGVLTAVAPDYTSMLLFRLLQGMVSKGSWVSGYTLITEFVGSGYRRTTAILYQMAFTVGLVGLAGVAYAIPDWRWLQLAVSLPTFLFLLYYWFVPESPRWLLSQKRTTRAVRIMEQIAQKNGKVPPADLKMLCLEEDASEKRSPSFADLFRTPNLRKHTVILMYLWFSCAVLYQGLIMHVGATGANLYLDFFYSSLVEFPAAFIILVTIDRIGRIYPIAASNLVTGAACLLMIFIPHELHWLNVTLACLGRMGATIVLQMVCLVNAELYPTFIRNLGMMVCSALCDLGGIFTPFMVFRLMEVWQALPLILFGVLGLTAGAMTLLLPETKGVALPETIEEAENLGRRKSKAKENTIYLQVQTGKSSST

OCT1 transport protein [2] = target: T1, OCT1 transport protein; assay: Inhibition of ^14 C-TEA uptake in Xenopus laevis oocytes injected with OCT1 cRNA
[3] = target: MPP uptake in hepatocytes; conditions: cultured hepatocytes; cited from earlier work
OCT1 transport protein [4] = target: T1, OCT1 transport protein; assay: cell-based
[5] = tested on: LLC-PK1 cells, luminal membrane; conditions: read-out: Ki for transport of TEA across the luminal membrane, LLC-PK1 cells; cited from earlier work
[6] = tested on: LLC-PK1 cells, basolateral membrane; conditions: estimated, read-out: Ki for transport of TEA across the basolateral membrane, LLC-PK1 cells; cited from earlier work
luminal uptake of TEA = conditions: previous investigations, cited from earlier work
[7] = target: basolateral membrane of rat proximal renal tubules; conditions: microperfusion experiments; previous investigations; read-out: Ki for basolateral uptake of TEA into rat proximal renal tubules; cited from earlier work
OCT1 transport protein [8] = target: T1, OCT1 transport protein; conditions: 8 ng OCT1 cRNA injected
[9] = tested on: neuronal monoamine transport protein in synaptic vesicles; conditions: cited from earlier work
[10] = Ki for inhibition of OCT1-elicited ^14 C-TEA uptake

Q: For C[n+]1ccc(-c2ccccc2)cc1 [1-Methyl-4-phenylpyridinium], which Ki (OCT1 transport protein [1]) is on record?
A: The Ki was 13 ± 2 µM.

Q: What does the source list for CC[n+]1c(C=C2C=C(C)N=C(c3ccccc3)N2C)ccc2ccccc21 [Cyanine 863, 1-ethyl-2([1,4-dimethyl-2-phenyl-6-pyrimidinylidene]methyl)quinoliniumchloride]?
A: Ki (OCT1 transport protein [2]; [10]): 0.00013 mM; Ki [3]: 0.1 µM

Q: Which results are given for CCN1C(=Cc2ccc3ccccc3[n+]2CC)C=Cc2ccccc21 [Decynium 22]?
A: Ki (OCT1 transport protein [4]): 0.4 µM; Ki [5]: 0.0056 µM; Ki (OCT1 transport protein [1]): 0.36 ± 0.08 µM; Ki [6]: > 0.1 µM; Ki [3]: 0.23 µM

Q: For CNCCCN1c2ccccc2CCc2ccccc21 [Desipramine], which “inhibition of OCT1-elicited ^14 C-TEA uptake (in words)” value (OCT1 transport protein [2]) is on record?
A: Its value is “inhibited”.

Q: Which Ki (OCT1 transport protein [1]) does the source give for CC(C)C(c1ccccc1)C(O)CC[N+]1(C)CCCCC1 (centres unmarked) [Mepiperphenidol] here?
A: Its Ki is 5.2 ± 0.3 µM.

Q: Which Ki (luminal uptake of TEA; read-out: Ki for luminal uptake of TEA (printed in nM)) does the source give for C[n+]1cccc(C(N)=O)c1 [N^1 -Methylnicotinamide] here?
A: The Ki was 8.3e+06 nM.

Q: And the Ki [7]?
A: The Ki was 540 µM.

Q: What about the “inhibition by NMN of OCT1-induced ^14 C-TEA uptake (in words)” value (OCT1 transport protein [2]) of the same compound?
A: The value was “able to inhibit”.

Q: And the “inhibition of OCT1-elicited ^14 C-TEA uptake (in words)” value (OCT1 transport protein [2])?
A: Its value is “inhibited”.

Q: And the Ki (OCT1 transport protein [2]; [10])?
A: The Ki was 1 ± 0.2 mM.

Q: What about the Ki (OCT1 transport protein [2]; Ki for inhibition of OCT1-elicited ^14 C-TEA uptake (mM, text)) of the same compound?
A: Its Ki is about 1 mM.

Q: Which Ki (OCT1 transport protein [1]) does the source give for COc1cc(C(O)CNC(C)C)ccc1O (centres unmarked) [O-Methylisoprenaline] here?
A: Its Ki is 43 ± 5 µM.

Q: And the “inhibition of OCT1-elicited ^14 C-TEA uptake (in words)” value (OCT1 transport protein [2]; oocytes injected with OCT1 cRNA)?
A: The value was “inhibited”.

Q: What about the Ki [3] of the same compound?
A: Its Ki is 78 µM.

Q: With C=C[C@H]1C[N@@]2CC[C@H]1C[C@H]2[C@H](O)c1ccnc2ccc(OC)cc12 [Quinine] as the compound, how does the “inhibition of expressed ^3 H-MPP uptake (in words)” value (OCT1 transport protein [8]) read?
A: Its value is “inhibited”.

Q: What does the source list for COC(=O)[C@H]1[C@H]2C[C@@H]3c4[nH]c5cc(OC)ccc5c4CCN3C[C@H]2C[C@@H](OC(=O)c2cc(OC)c(OC)c(OC)c2)[C@@H]1OC [Reserpine]?
A: effect on OCT1-elicited transport (OCT1 transport protein [2]; 5 μM): no effect; inhibiting concentration, neuronal monoamine transport protein in synaptic vesicles [9]: sub-nanomolar

Q: What does the source list for C[N+](C)(C)C [Tetramethylammonium]?
A: Ki (luminal uptake of TEA; read-out: Ki for luminal uptake of TEA): 7e+07 nM; Ki [7]: 1400 µM; inhibition of OCT1-elicited ^14 C-TEA uptake (in words) (OCT1 transport protein [2]): inhibited

Q: With CCCCC[N+](CCCCC)(CCCCC)CCCCC [Tetrapentylammonium] as the compound, how does the Ki (OCT1 transport protein [1]) read?
A: Its Ki is 0.43 ± 0.09 µM.
